According to the supplement of paper PMC11061612:

Tests used:
[1] = compound: Nc1ccn([C@@H]2O[C@H](CO)[C@@H](O)C2(F)F)c(=O)n1 [Gemcitabine]; conditions: max 0.3 µM
How it was run: (§1)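 In 1536-well plates, cancer cell lines in 7.5 μl DMEM/F12 or RPMI with 10% FBS spent 24 hours at 37°C and 5% CO2 and were then dosed for 72 hours with final DMSO typically 0.2%. Viability was read by CellTiter-Glo 2.0 luminescence and scaled between blank-well and DMSO-well means. The single-agent IC50 was fitted from dose responses using a logistic curve in a non-linear mixed effects model, and that logistic curve had two parameters.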

[2] = compound: CC(=O)O[C@H]1C(=O)[C@@]2(C)[C@H]([C@H](OC(=O)c3ccccc3)[C@]3(O)C[C@H](OC(=O)[C@H](O)[C@@H](NC(=O)c4ccccc4)c4ccccc4)C(C)=C1C3(C)C)[C@]1(OC(C)=O)CO[C@@H]1C[C@@H]2O [Paclitaxel]; conditions: max 3 µM
How it was run: as §1

[3] = compound: Cc1nc(-c2cn3c(n2)-c2ccc(-c4cnn(C(C)(C)C(N)=O)c4)cc2OCC3)n(C(C)C)n1 [Taselisib]; conditions: max 10 µM
How it was run: as §1

[4] = compound: O=C(Nc1ccc2[nH]nc(-c3ccncc3)c2c1)[C@@H]1CCN(CC(=O)N2CCN(c3ccc(-c4ncccn4)cc3)CC2)C1; conditions: max 5 µM
How it was run: as §1

[5] = compound: COc1cc([C@@H]2c3cc4c(cc3[C@@H](O[C@@H]3O[C@@H]5CO[C@@H](C)O[C@H]5[C@H](O)[C@H]3O)[C@H]3COC(=O)[C@H]23)OCO4)cc(OC)c1O [Etoposide]; conditions: max 10 µM
How it was run: as §1

[6] = compound: C=CCn1c(=O)c2cnc(Nc3ccc(N4CCN(C)CC4)cc3)nc2n1-c1cccc(C(C)(C)O)n1 [AZD1775]; conditions: max 3 µM
How it was run: as §1

[7] = compound: CC(C)n1c(=O)n(C)c2cnc3cc(F)c(-c4ccc(OCCCN5CCCCC5)nc4)cc3c21 [AZD1390]; conditions: max 0.3 µM
How it was run: as §1

[8] = compound: COc1cc2ncnc(Nc3ccc(F)c(Cl)c3)c2cc1OCCCN1CCOCC1 [Gefitinib]; conditions: max 10 µM
How it was run: as §1

[9] = compound: O=c1[nH]cc(F)c(=O)[nH]1 [5-Fluorouracil]; conditions: max 20 µM
How it was run: as §1

[10] = compound: N#Cc1cnc(Nc2cc(NC[C@H]3CNCCO3)c(C(F)(F)F)cn2)cn1 [SRA737]; conditions: max 10 µM
How it was run: as §1

[11] = compound: CC(=O)Nc1cccc(-n2c(=O)n(C3CC3)c(=O)c3c(Nc4ccc(I)cc4F)n(C)c(=O)c(C)c32)c1 [Trametinib]; conditions: max 1 µM
How it was run: as §1

[12] = compound: CCc1c2c(nc3ccc(O)cc13)-c1cc3c(c(=O)n1C2)COC(=O)[C@]3(O)CC [SN-38]; conditions: max 0.3 µM
How it was run: as §1

[13] = compound: C1CN(CCC1(C(=O)N[C@@H](CCO)C2=CC=C(C=C2)Cl)N)C3=NC=NC4=C3C=CN4 [AZD5363]; conditions: max 10 µM
How it was run: as §1

[14] = compound: C1CC(C1)(C(=O)[O-])C(=O)[O-].N.N.[Pt+2] [Carboplatin]; conditions: max 10 µM
How it was run: as §1

[15] = compound: COc1cc(Nc2ncc3c(n2)-c2ccc(Cl)cc2C(c2c(F)cccc2OC)=NC3)ccc1C(=O)O [Alisertib]; conditions: max 10 µM
How it was run: as §1

[16] = compound: C[C@@H](c1ccc2nccn2c1)n1nnc2ncc(-c3cnn(C)c3)nc21 [Savolitinib]; conditions: max 1 µM
How it was run: as §1

[17] = compound: CC(=O)c1c(C)c2cnc(Nc3ccc(N4CCNCC4)cn3)nc2n(C2CCCC2)c1=O [Palbociclib]; conditions: max 10 µM
How it was run: as §1

[18] = compound: NC1(c2ccc(-c3nc4ccn5c(=O)[nH]nc5c4cc3-c3ccccc3)cc2)CCC1 [MK-2206]; conditions: max 10 µM
How it was run: as §1

[19] = compound: O=C(c1cc(Cc2n[nH]c(=O)c3ccccc23)ccc1F)N1CCN(C(=O)C2CC2)CC1 [Olaparib]; conditions: max 10 µM
How it was run: as §1

[20] = compound: C[C@@H](Oc1cc(-c2cnn(C3CCNCC3)c2)cnc1N)c1c(Cl)ccc(F)c1Cl [Crizotinib]; conditions: max 10 µM
How it was run: as §1

[21] = compound: CS(=O)(=O)CCNCc1ccc(-c2ccc3ncnc(Nc4ccc(OCc5cccc(F)c5)c(Cl)c4)c3c2)o1 [Lapatinib]; conditions: max 10 µM
How it was run: as §1

[22] = compound: Cc1cc2ncnn2cc1Nc1ncc2c(n1)n(C1CCOCC1)c(=O)n2C [AZD7648]; conditions: max 10 µM
How it was run: as §1

[23] = compound: C[C@@H](Nc1cc(F)cc(F)c1)c1cc(C(=O)N(C)C)cc2c(=O)cc(N3CCOCC3)oc12 [AZD8186]; conditions: max 10 µM
How it was run: as §1

[24] = compound: CCN(CCO)CCCOc1ccc2c(Nc3cc(CC(=O)Nc4cccc(F)c4)[nH]n3)ncnc2c1 [AZD2811]; conditions: max 1 µM
How it was run: as §1

[25] = compound: CC1(C)CCC(CN2CCN(c3ccc(C(=O)NS(=O)(=O)c4ccc(NCC5CCOCC5)c([N+](=O)[O-])c4)c(Oc4cnc5[nH]ccc5c4)c3)CC2)=C(c2ccc(Cl)cc2)C1 [Venetoclax]; conditions: max 1 µM
How it was run: as §1

[26] = compound: CN(C)CCCOc1ccc(-c2ccc3ncc4c(c3c2)n(C2CCOCC2)c(=O)n4C)cn1 [AZD0156]; conditions: max 3 µM
How it was run: as §1

[27] = compound: C[C@@H]1COCCN1C2=NC(=NC(=C2)C3(CC3)[S@](=N)(=O)C)C4=C5C=CNC5=NC=C4 [AZD6738]; conditions: max 10 µM
How it was run: as §1

[28] = compound: COc1nnc2ccc(N3CCC(c4ccc(OCCN5CCN(C)C(=O)[C@H]5C)cc4)CC3)nn12 [AZD5153]; conditions: max 1 µM
How it was run: as §1

[29] = compound: COc1cccc(OCCCN)c1-c1cc(Nc2cnc(C#N)cn2)n[nH]1 [Prexasertib]; conditions: max 1 µM
How it was run: as §1

[30] = compound: Cn1cnc2c(F)c(Nc3ccc(Br)cc3Cl)c(C(=O)NOCCO)cc21 [Selumetinib]; conditions: max 10 µM
How it was run: as §1

[31] = compound: Cc1c2c(nn1C)CSCc1cc(n(C)n1)CSc1cc(c3ccccc3c1)OCCCc1c(C(=O)O)n(C)c3c-2c(Cl)ccc13 [AZD5991]; conditions: max 1 µM
How it was run: as §1

[32] = compound: CC1=C(C(=CC=C1)Cl)NC(=O)C2=CN=C(S2)NC3=CC(=NC(=N3)C)N4CCN(CC4)CCO [Dasatinib]; conditions: max 2 µM
How it was run: as §1

[33] = compound: CC1=CN2[C@@H](C1)C=NC3=CC(=C(C=C3C2=O)OC)OCCCCCOC4=C(C=C5C(=C4)N=C[C@@H]6CC(=CN6C5=O)C)OC [SG3199]; conditions: max 0.001 µM
How it was run: as §1

[34] = compound: COc1cccc2c1C(=O)c1c(O)c3c(c(O)c1C2=O)C[C@@](O)(C(=O)CO)C[C@@H]3O[C@H]1C[C@H](N)[C@H](O)[C@H](C)O1 [Doxorubicin]; conditions: max 1 µM
How it was run: as §1

[35] = compound: CN(CC[C@H](CSC1=CC=CC=C1)NC2=C(C=C(C=C2)S(=O)(=O)NC(=O)C3=CC=C(C=C3)N4CCC(CC4)[C@H](C5=CC=CC=C5C6=CC=C(C=C6)Cl)O)S(=O)(=O)C(F)(F)F)CCO [AZD4320]; conditions: max 1 µM
How it was run: as §1

| Cell Line | IC50, cell viability 72 h [1] [nM] | IC50, cell viability 72 h [2] [nM] | IC50, cell viability 72 h [3] [µM] | IC50, cell viability 72 h [4] [µM] | IC50, cell viability 72 h [5] [µM] | IC50, cell viability 72 h [6] [nM] | IC50, cell viability 72 h [7] [nM] | IC50, cell viability 72 h [8] [µM] | IC50, cell viability 72 h [9] [µM] | IC50, cell viability 72 h [10] [µM] | IC50, cell viability 72 h [11] [nM] | IC50, cell viability 72 h [12] [nM] | IC50, cell viability 72 h [13] [µM] | IC50, cell viability 72 h [14] [µM] | IC50, cell viability 72 h [15] [µM] | IC50, cell viability 72 h [16] [nM] | IC50, cell viability 72 h [17] [µM] | IC50, cell viability 72 h [18] [µM] | IC50, cell viability 72 h [19] [µM] | IC50, cell viability 72 h [20] [µM] | IC50, cell viability 72 h [21] [µM] | IC50, cell viability 72 h [22] [µM] | IC50, cell viability 72 h [23] [µM] | IC50, cell viability 72 h [24] [nM] | IC50, cell viability 72 h [25] [nM] | IC50, cell viability 72 h [26] [nM] | IC50, cell viability 72 h [27] [µM] | IC50, cell viability 72 h [28] [nM] | IC50, cell viability 72 h [29] [nM] | IC50, cell viability 72 h [30] [µM] | IC50, cell viability 72 h [31] [nM] | IC50, cell viability 72 h [32] [nM] | IC50, cell viability 72 h [33] [nM] | IC50, cell viability 72 h [34] [nM] | IC50, cell viability 72 h [35] [nM] |
| --- | --- | --- | --- | --- | --- | --- | --- | --- | --- | --- | --- | --- | --- | --- | --- | --- | --- | --- | --- | --- | --- | --- | --- | --- | --- | --- | --- | --- | --- | --- | --- | --- | --- | --- | --- |
| NCI-H1792 (Lung Adenocarcinoma) | 34.5 | 5.92 | 4.88 | > 5 | 7.11 | 730 | > 300 | > 10 | 7.72 | > 10 | 83.5 | 159 | > 10 | > 10 | 5.11 | > 1000 | > 10 | > 10 | > 10 | 6.07 | > 10 | > 10 | > 10 | > 1000 | > 1000 | > 3000 | 4.81 | 561 | 97.9 | > 10 | > 1000 | 1550 | > 1 | 558 | > 1000 |
| NCI-H2818 (Mesothelioma) | > 300 | 745 | > 10 | > 5 | > 10 | > 3000 | > 300 | > 10 | > 20 | > 10 | > 1000 | > 300 | > 10 | > 10 | > 10 | > 1000 | > 10 | > 10 | > 10 | > 10 | > 10 | > 10 | > 10 | > 1000 | > 1000 | > 3000 | > 10 | > 1000 | > 1000 | > 10 | > 1000 | > 2000 | > 1 | > 1000 | > 1000 |
| SR (Other Blood Carcinomas) | 45.3 | 5.75 | > 10 | > 5 | 0.126 | 187 | > 300 | > 10 | 4.32 | 1.4 | > 1000 | 3.3 | > 10 | > 10 | 0.0503 | > 1000 | 3 | > 10 | > 10 | 0.251 | > 10 | > 10 | > 10 | 43.5 | 722 | > 3000 | 1.75 | 86.4 | 5.88 | > 10 | 352 | > 2000 | > 1 | 26.1 | 677 |
| SW837 (Colorectal Carcinoma) | > 300 | 582 | > 10 | > 5 | > 10 | 2240 | > 300 | > 10 | > 20 | > 10 | 300 | > 300 | > 10 | > 10 | > 10 | > 1000 | > 10 | > 10 | > 10 | > 10 | > 10 | > 10 | > 10 | > 1000 | > 1000 | > 3000 | > 10 | 717 | 186 | 9.89 | > 1000 | > 2000 | > 1 | > 1000 | > 1000 |
| SW1417 (Colorectal Carcinoma) | > 300 | 422 | > 10 | 1.35 | > 10 | > 3000 | > 300 | > 10 | > 20 | > 10 | 51.5 | 182 | > 10 | > 10 | > 10 | > 1000 | > 10 | > 10 | > 10 | > 10 | > 10 | > 10 | > 10 | > 1000 | > 1000 | > 3000 | > 10 | > 1000 | 567 | 4.87 | > 1000 | > 2000 | > 1 | > 1000 | > 1000 |
